The values that follow come from patent publication US9399649B2, “Compounds for treating spinal muscular atrophy” (PTC Therapeutics Inc., priority 2012, dated 2016).

One series deals with Smn protein. Nature of the series: Smn protein assay in cultured cells (SMN HTRF). In kind it is cell-based, human. Conditions: SMA patient fibroblast cells (GM03813), 48 hours; for EC1.5x for Smn protein expression: 7-point concentration curve, concentration producing 1.5 times Smn protein vs DMSO vehicle; for maximum fold (Fold) increase of Smn protein: 7-point concentration data, relative to vehicle control. An outline of the steps:
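SMA patient fibroblasts, 5,000 per well in DMEM-10% FBS, exposed 48 h at 37° C. to a 7-point, 3.16-fold compound series in triplicate. RIPA lysates read by SMN HTRF (665/620 nm, overnight at room temperature); ΔF over blank expressed as fold of vehicle.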

Series [1] has as its system full length SMN2 minigene mRNA containing SMN2 exon 7. Put plainly: SMN2 minigene mRNA splicing RT-qPCR assay in cultured cells. It counts as cell-based, human. Conditions: Homo sapiens, HEK293-H; HEK293H cells stably transfected with SMN2-A minigene, 24 hours, 7-point concentration curve; concentration giving 1.5-fold full length SMN2 mRNA vs vehicle; read-out: EC1.5x for production of full length SMN2 mRNA. An outline of the steps:
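HEK293H cells stably carrying SMN2-A minigene treated 24 h (37 °C) with compound, 7-point 3.16-fold dilution, duplicates. Multiplex RT-qPCR on lysate with exon 7/luciferase primers and exon 7–8 junction probe (minigene-specific). Full-length transcript normalised to GAPDH by modified ΔΔCt, expressed relative to vehicle-treated cells.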

With `Cc1nc(Cl)cn2cc(-c3cc4ccc(N5CCN(C(C)C)CC5)cc4c(=O)o3)nc12` [Cpd 101, 3-(6-chloro-8-methylimidazo[1,2-a]pyrazin-2-yl)-7-[4-(propan-2-yl)piperazin-1-yl]-1H-isochromen-1-one], the melting point (commonly the temperature, or range, at which the solid turns liquid) lay within 286 to 291 °C. For the same compound, in the series on Smn protein, the “EC1.5x for Smn protein expression” value was “*** (an EC1.5× between >0.3 nM and ≦1 nM is indicated by three stars (***))”; the “maximum fold (Fold) increase of Smn protein” value (“maximum fold (Fold) increase” below) is listed as “***** (a fold increase >1.65 is indicated by five stars (*****))”. For the same compound, in series [1], the EC (1.5-fold) lay in the range of 0.1 to 0.3 µM.
`O=c1oc(-c2ccccn2)cc2ccc(N3CCNCC3)cc12` [Cpd 1, 7-(piperazin-1-yl)-3-(pyridin-2-yl)-1H-isochromen-1-one] gave a melting point of 179 to 181 °C. For the same compound, the “maximum fold (Fold) increase” value with Smn protein is “** (a fold increase between >1.2 and ≦1.35 is indicated by two stars (**))”. Further, in series [1], the EC (1.5-fold) was 1 to 3 µM.
On to `Cc1nc(Cl)cn2cc(-c3cc4ccc(N5CCN[C@@H](C)C5)cc4c(=O)o3)nc12` [Cpd 108, 3-(6-chloro-8-methylimidazo[1,2-a]pyrazin-2-yl)-7-[(3S)-3-methylpiperazin-1-yl]-1H-isochromen-1-one], for which the melting point was in the range of 251 to 258 °C. For the same compound, in the series with Smn protein, the “EC1.5x for Smn protein expression” value is “**** (an EC1.5×≦0.3 nM is indicated by four stars (****))” and the “maximum fold (Fold) increase” value is “***** (a fold increase >1.65 is indicated by five stars (*****))”. Moreover, the EC (1.5-fold) in series [1] was at most 0.1 µM.
With `CCN1CC=C(c2ccc3cc(-c4cn5cc(C)nc(C)c5n4)oc(=O)c3c2)CC1` [Cpd 90, 3-(6,8-dimethylimidazo[1,2-a]pyrazin-2-yl)-7-(1-ethyl-1,2,3,6-tetrahydropyridin-4-yl)-1H-isochromen-1-one], the melting point is 227 to 229 °C. Besides, in the series with Smn protein, the “EC1.5x for Smn protein expression” value is listed as “**** (an EC1.5×≦0.3 nM is indicated by four stars (****))” and the “maximum fold (Fold) increase” value is reported as “***** (a fold increase >1.65 is indicated by five stars (*****))”. Moreover, the EC (1.5-fold) in series [1] was at most 0.1 µM.
Take `Cc1nc2ccc(-c3cc4ccc(N5CCNCC5)cc4c(=O)o3)cc2s1` [Cpd 103, 3-(2-methyl-1,3-benzothiazol-6-yl)-7-(piperazin-1-yl)-1H-isochromen-1-one]: the melting point lay in the range of 271 to 276 °C. Further, in the series on Smn protein, the “EC1.5x for Smn protein expression” value is “**** (an EC1.5×≦0.3 nM is indicated by four stars (****))”; the “maximum fold (Fold) increase” value was “**** (a fold increase between >1.5 and ≦1.65 is indicated by four stars (****))”. Also, in series [1], the EC (1.5-fold) was at most 0.1 µM.
`COc1ccc(-c2cc3ccc(N4C[C@@H](C)N[C@@H](C)C4)cc3c(=O)o2)cc1` [Cpd 29, 7-[(3R,5S)-3,5-dimethylpiperazin-1-yl]-3-(4-methoxyphenyl)-1H-isochromen-1-one] showed a melting point of 109 to 110 °C. In the series with Smn protein, the “maximum fold (Fold) increase” value is “* (A maximum fold increase of ≦1.2 is indicated by one star (*))”. In addition, the EC (1.5-fold) in series [1] was 0.3 to 1 µM.
As to `O=c1oc(-c2ccc3c(c2)OCCO3)cc2ccc(N3CCNCC3)cc12` [Cpd 13, 3-(2,3-dihydro-1,4-benzodioxin-6-yl)-7-(piperazin-1-yl)-1H-isochromen-1-one], the melting point was in the range of 253 to 255 °C. In addition, the “maximum fold (Fold) increase” value with Smn protein is on record as “* (A maximum fold increase of ≦1.2 is indicated by one star (*))”. In addition, the EC (1.5-fold) in series [1] lay in the range of 1 to 3 µM.
On to `CCN1CCC(c2ccc3cc(-c4cn5cc(C)nc(C)c5n4)oc(=O)c3c2)CC1` [Cpd 115, 3-(6,8-dimethylimidazo[1,2-a]pyrazin-2-yl)-7-(1-ethylpiperidin-4-yl)-1H-isochromen-1-one], for which the melting point lay within 215 to 217 °C. Further, in the series with Smn protein, the “EC1.5x for Smn protein expression” value is recorded as “**** (an EC1.5×≦0.3 nM is indicated by four stars (****))” and the “maximum fold (Fold) increase” value is reported as “***** (a fold increase >1.65 is indicated by five stars (*****))”. The EC (1.5-fold) in series [1] is at most 0.1 µM.
The compound `O=c1oc(-c2cn3cccc(Cl)c3n2)cc2ccc(N3CCNCC3)cc12` [Cpd 59, 3-(8-chloroimidazo[1,2-a]pyridin-2-yl)-7-(piperazin-1-yl)-1H-isochromen-1-one] had a melting point of 343 to 345 °C. In addition, in the series with Smn protein, the “maximum fold (Fold) increase” value is “** (a fold increase between >1.2 and ≦1.35 is indicated by two stars (**))”. For the same compound, in series [1], the EC (1.5-fold) fell in the range of 1 to 3 µM.
In turn, `Cc1nc(Cl)cn2cc(-c3cc4ccc(N5CCN[C@H](C)C5)cc4c(=O)o3)nc12` [Cpd 109, 3-(6-chloro-8-methylimidazo[1,2-a]pyrazin-2-yl)-7-[(3R)-3-methylpiperazin-1-yl]-1H-isochromen-1-one] came in with a melting point of 251 to 258 °C. For the same compound, in the series on Smn protein, the “EC1.5x for Smn protein expression” value is “*** (an EC1.5× between >0.3 nM and ≦1 nM is indicated by three stars (***))”; the “maximum fold (Fold) increase” value is listed as “***** (a fold increase >1.65 is indicated by five stars (*****))”. Further, the EC (1.5-fold) in series [1] was at most 0.1 µM.
Consider `CN1CCN(c2ccc3cc(-c4cn5ccccc5n4)oc(=O)c3c2)CC1` [Cpd 27, 3-(imidazo[1,2-a]pyridin-2-yl)-7-(4-methylpiperazin-1-yl)-1H-isochromen-1-one], for which the melting point fell in the range of 252 to 254 °C. The “maximum fold (Fold) increase” value in the series with Smn protein is “* (A maximum fold increase of ≦1.2 is indicated by one star (*))”. For the same compound, the EC (1.5-fold) in series [1] was 3 to 30 µM.
The compound `Cc1cn2cc(-c3cc4ccc(N5C[C@@H](C)N[C@@H](C)C5)cc4c(=O)o3)nc2c(C)n1` [Cpd 64, 3-(6,8-dimethylimidazo[1,2-a]pyrazin-2-yl)-7-[(3R,5S)-3,5-dimethylpiperazin-1-yl]-1H-isochromen-1-one] showed a melting point of 244 to 246 °C. Besides, in the series with Smn protein, the “EC1.5x for Smn protein expression” value was “**** (an EC1.5×≦0.3 nM is indicated by four stars (****))” and the “maximum fold (Fold) increase” value is listed as “***** (a fold increase >1.65 is indicated by five stars (*****))”. Also, the EC (1.5-fold) in series [1] is at most 0.1 µM.
Compound `CCN1[C@H](C)CN(c2ccc3cc(-c4cn5cc(C)ncc5n4)oc(=O)c3c2)C[C@@H]1C` [Cpd 129, 7-[(3R,5S)-4-ethyl-3,5-dimethylpiperazin-1-yl]-3-(6-methylimidazo[1,2-a]pyrazin-2-yl)-1H-isochromen-1-one] displayed a melting point of 233 to 238 °C. Besides, in the series on Smn protein, the “EC1.5x for Smn protein expression” value is “**** (an EC1.5×≦0.3 nM is indicated by four stars (****))” and the “maximum fold (Fold) increase” value was “***** (a fold increase >1.65 is indicated by five stars (*****))”. The EC (1.5-fold) in series [1] was at most 0.1 µM.
Regarding `CN1CCN(c2ccc3cc(-c4cn5cccc(Cl)c5n4)oc(=O)c3c2)CC1` [Cpd 61, 3-(8-chloroimidazo[1,2-a]pyridin-2-yl)-7-(4-methylpiperazin-1-yl)-1H-isochromen-1-one], the melting point is 240 °C (dec.). In addition, the “maximum fold (Fold) increase” value in the series on Smn protein is recorded as “* (A maximum fold increase of ≦1.2 is indicated by one star (*))”. The EC (1.5-fold) in series [1] was 1 to 3 µM.
`Cc1cn2cc(-c3cc4ccc(N5CCN[C@H](C)C5)cc4c(=O)o3)nc2c(C)n1` [Cpd 71, 3-(6,8-dimethylimidazo[1,2-a]pyrazin-2-yl)-7-[(3R)-3-methylpiperazin-1-yl]-1H-isochromen-1-one] had a melting point of 331 to 333 °C. In the series on Smn protein, the “EC1.5x for Smn protein expression” value is given as “**** (an EC1.5×≦0.3 nM is indicated by four stars (****))” and the “maximum fold (Fold) increase” value is reported as “***** (a fold increase >1.65 is indicated by five stars (*****))”. Also, the EC (1.5-fold) in series [1] was at most 0.1 µM.
